Like-named read-outs stand apart in the source and are kept apart here.
Key:
[1] = biological target: CSNK2A1 (CK2 alpha 1) (Homo sapiens (Human), UniProt P68400); assay: CK2 alpha 1 enzymatic activity inhibition (Z'-LYTE); type: biochemical; details: read-out: CK2a IC50
Method: CK2 Alpha 1 Enzymatic Activity Inhibition: Determination of IC50 Values for Selected Compounds
The half maximal inhibitory concentration (IC50) with respect to CK2 alpha 1 inhibition was determined for the compounds of the invention by using Z′-LYTE™ from ThermoFisher Scientific's SelectScreen™ Biochemical Kinase Profiling Service (Waltham, MA). Compounds were screened in 1% DMSO (final) in the well. For 10 point titrations, 3-fold serial dilutions were conducted from the starting concentration. The 2×CSNK2A1 (CK2 alpha 1)/Ser/Thr 11 mixture is prepared in 50 mM HEPES pH 7.5, 0.01% BRIJ-35, 10 mM MgCl2, 1 mM EGTA. The black 384-well plate (Corning Cat. #4514) were used for the assay. 100 nL of 100× test compound in 100% DMSO, 2.4 uL of kinase buffer (50 mM HEPES pH 7.5, 0.01% BRIJ-35, 10 mM MgCl2, 1 mM EGTA), 5 uL of 2×CSNK2A1 (CK2 alpha 1)/Ser/Thr 11 mixture, and 2.5 uL of 4×ATP solution were mixed and agitated for 30 seconds. Then the Kinase Reaction was incubated at room temperature for 60 minutes. The final 10 uL Kinase Reaction consisted of 0.68-25.7 ng CSNK2A1 (CK2 alpha 1) and 2 μM Ser/Thr 11 in 50 mM HEPES pH 7.5, 0.01% BRIJ-35, 10 mM MgCl2, 1 mM EGTA. After the 1 hour Kinase Reaction incubation, 5 uL of a 1:16 dilution of Development Reagent B is added. After 30 second of plate shake, the reaction plate was incubated for another 60 min at room temperature. Then the plate was read on a fluorescence plate reader (CLARIOstar, BMG Labtech, Germany) and data was analyzed using XLfit from IDBS. The dose response curve was curve fit to model number 205 (sigmoidal dose-response model).

[2] = biological target: HIPK2 (Homo sapiens (Human), UniProt Q9H2X6); assay: HIPK2 enzymatic activity inhibition (Z'-LYTE); type: biochemical
Method: HIPK2 Enzymatic Activity Inhibition: Determination of IC50 Values for Selected Compounds
The half maximal inhibitory concentration (IC50) with respect to HIPK2 inhibition was determined for the compounds of the invention by using Z′-LYTE™ from ThermoFisher Scientific's SelectScreen™ Biochemical Kinase Profiling Service (Waltham, MA). Compounds were screened in 1% DMSO (final) in the well. For 10 point titrations, 3-fold serial dilutions were conducted from the starting concentration. The 2×HIPK2/Ser/Thr 09 mixture was prepared in 50 mM HEPES pH 7.5, 0.01% BRIJ-35, 10 mM MgCl2, 1 mM EGTA.
100 nL of 100× test compound in 100% DMSO, 2.4 uL of kinase buffer (50 mM HEPES pH 7.5, 0.01% BRIJ-35, 10 mM MgCl2, 1 mM EGTA), 5 uL of 2×HIPK2/Ser/Thr 09 mixture, and 2.5 uL of 4×ATP solution were mixed and agitated for 30 seconds. Then the Kinase Reaction was incubated at room temperature for 60 minutes. […] After 30 second of plate shake, the reaction plate was incubated for another 60 min at room temperature. Then the plate was read on a fluorescence plate reader (CLARIOstar, BMG Labtech, Germany) as plate reader and data was analyzed using XLfit from IDBS.

CSNK2A1 (CK2 alpha 1), sequence (P68400 whole entry): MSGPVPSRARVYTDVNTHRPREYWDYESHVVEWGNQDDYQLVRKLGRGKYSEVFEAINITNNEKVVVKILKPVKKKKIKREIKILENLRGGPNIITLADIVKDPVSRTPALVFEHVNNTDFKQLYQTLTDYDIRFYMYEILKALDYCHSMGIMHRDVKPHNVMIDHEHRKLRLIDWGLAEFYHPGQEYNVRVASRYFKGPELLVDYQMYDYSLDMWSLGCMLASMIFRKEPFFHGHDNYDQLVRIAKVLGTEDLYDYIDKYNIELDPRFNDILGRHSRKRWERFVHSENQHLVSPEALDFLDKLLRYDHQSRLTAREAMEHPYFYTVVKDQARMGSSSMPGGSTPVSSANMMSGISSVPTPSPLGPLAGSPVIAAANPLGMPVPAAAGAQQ
HIPK2, sequence (Q9H2X6 whole entry): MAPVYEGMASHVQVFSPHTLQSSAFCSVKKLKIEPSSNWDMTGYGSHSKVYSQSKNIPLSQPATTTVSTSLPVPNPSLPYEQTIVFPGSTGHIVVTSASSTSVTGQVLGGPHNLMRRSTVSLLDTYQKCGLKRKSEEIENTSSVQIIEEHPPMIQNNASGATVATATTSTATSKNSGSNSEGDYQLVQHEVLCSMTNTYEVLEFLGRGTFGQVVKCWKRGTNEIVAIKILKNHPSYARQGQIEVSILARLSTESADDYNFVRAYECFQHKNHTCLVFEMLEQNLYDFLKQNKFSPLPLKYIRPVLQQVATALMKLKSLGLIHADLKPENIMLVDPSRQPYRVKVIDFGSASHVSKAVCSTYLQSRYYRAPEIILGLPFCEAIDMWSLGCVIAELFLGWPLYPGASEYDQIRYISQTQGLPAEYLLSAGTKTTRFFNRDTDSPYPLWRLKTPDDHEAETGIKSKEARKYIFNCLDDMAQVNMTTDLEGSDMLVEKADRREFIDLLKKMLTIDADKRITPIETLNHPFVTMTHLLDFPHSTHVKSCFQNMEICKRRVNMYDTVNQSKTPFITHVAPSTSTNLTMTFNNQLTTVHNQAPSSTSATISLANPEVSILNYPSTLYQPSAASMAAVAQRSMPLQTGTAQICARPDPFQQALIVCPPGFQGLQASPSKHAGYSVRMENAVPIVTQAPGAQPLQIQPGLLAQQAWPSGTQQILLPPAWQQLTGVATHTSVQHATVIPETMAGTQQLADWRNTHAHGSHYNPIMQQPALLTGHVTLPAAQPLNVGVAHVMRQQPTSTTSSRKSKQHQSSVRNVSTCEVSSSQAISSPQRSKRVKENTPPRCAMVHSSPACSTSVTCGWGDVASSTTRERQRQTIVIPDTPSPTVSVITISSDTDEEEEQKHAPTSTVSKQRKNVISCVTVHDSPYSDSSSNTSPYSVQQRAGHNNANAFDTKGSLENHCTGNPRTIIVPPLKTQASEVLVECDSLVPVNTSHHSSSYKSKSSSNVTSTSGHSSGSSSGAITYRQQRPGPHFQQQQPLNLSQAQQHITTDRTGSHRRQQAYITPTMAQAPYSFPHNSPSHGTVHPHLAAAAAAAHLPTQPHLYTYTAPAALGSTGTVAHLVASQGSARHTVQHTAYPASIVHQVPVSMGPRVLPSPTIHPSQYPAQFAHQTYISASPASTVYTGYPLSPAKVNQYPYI

Row | SMILES | IC50 [1] [µM] | IC50 [2] [µM] | IC50 ([2]; read-out: HIPK2 IC50) [µM]
1 | CC(C)CNc1cc2cc(C(=O)O)ccc2c2cnccc12 [Compound 16] | < 0.3 |  | 
2 | O=C(O)c1ccc2c(c1)cc(N[C@@H]1CCCNC1)c1ccncc12 [Compound 13, (R)-5-(Piperidin-3-ylamino)benzo[h]isoquinoline-8-carboxylic acid] | 1 to 5 | 1 to 5 | 
3 | CC[C@H](C)Nc1cc2cc(C(=O)O)ccc2c2cnccc12 [Compound 19, (S)-5-(sec-Butylamino)benzo[h]isoquinoline-8-carboxylic acid] | < 0.3 | 1 to 5 | 
4 | CN(C)c1nccc2c(Br)cc3cc(C(=O)O)ccc3c12 [Compound 30, Sodium 5-bromo-1-(dimethylamino)benzo[h]isoquinoline-8-carboxylate] | 1 to 5 | 1 to 5 | 
5 | O=C(O)c1ccc2c(c1)cc(Br)c1ccnc(NC3CC3)c12 [Compound 31, Sodium 5-bromo-1-(cyclopropylamino)benzo[h]isoquinoline-8-carboxylate] | 1 to 5 | 1 to 5 | 
6 | O=C(O)c1ccc2c(c1)cc(NC1CCC1)c1ccncc12 [Compound 18, Sodium 5-(cyclobutylamino)benzo[h]isoquinoline-8-carboxylate] | < 0.3 | 0.3 to 1 | 
7 | Nc1nccc2cc(Br)c3cc(C(=O)O)ccc3c12 [Compound 35, Sodium 1-amino-6-bromobenzo[h]isoquinoline-8-carboxylate] | 0.3 to 1 |  | < 0.3
8 | N#Cc1cc2cc(C(=O)O)ccc2c2cnccc12 [Compound 27, Sodium 5-cyanobenzo[h]isoquinoline-8-carboxylate] | < 0.3 | 0.3 to 1 | 
9 | O=C(O)c1ccc2c(c1)cc(Nc1cccc(Cl)c1)c1ccncc12 [Compound 4, Sodium 5-((3-chlorophenyl)amino)benzo[h]isoquinoline-8-carboxylate] | < 0.3 | 0.3 to 1 | 
10 | Nc1ccc(-c2cc3cc(C(=O)O)ccc3c3cnccc23)cn1 [Compound 10, Sodium 5-(6-aminopyridin-3-yl)benzo[h]isoquinoline-8-carboxylate] | < 0.3 | 0.3 to 1 | 
11 | N[C@@H]1CCCN(c2cc3cc(C(=O)O)ccc3c3cnccc23)C1 [Compound 14, (R)-5-(3-Aminopiperidin-1-yl)benzo[h]isoquinoline-8-carboxylic acid] | < 0.3 |  | > 5
12 | O=C(O)c1ccc2c(c1)cc(NC1CCCCC1)c1ccncc12 [Compound 12, Sodium 5-(cyclohexylamino)benzo[h]isoquinoline-8-carboxylate] | < 0.3 | 0.3 to 1 | 
13 | O=C(O)c1ccc2c(c1)cc(-c1cc[nH]n1)c1ccncc12 [Compound 11, Sodium 5-(1H-pyrazol-3-yl)benzo[h]isoquinoline-8-carboxylate] | < 0.3 | 1 to 5 | 
14 | CNc1nccc2c(Br)cc3cc(C(=O)O)ccc3c12 [Compound 32, Sodium 5-bromo-1-(methylamino)benzo[h]isoquinoline-8-carboxylate] | 0.3 to 1 | 1 to 5 | 
15 | O=C(O)c1ccc2c(c1)cc(-c1ccncc1)c1ccncc12 [Compound 8, Sodium 5-(pyridin-4-yl)benzo[h]isoquinoline-8-carboxylate] | < 0.3 | 1 to 5 | 
16 | O=C(O)c1ccc2c(c1)cc(NC1CCCC1)c1ccncc12 [Compound 15, Sodium 5-(cyclopentylamino)benzo[h]isoquinoline-8-carboxylate] | < 0.3 | 0.3 to 1 | 
17 | NC(=O)c1ccc2c(c1)cc(Br)c1ccnc(N)c12 [Compound 33, 1-Amino-5-bromobenzo[h]isoquinoline-8-carboxamide] | 1 to 5 | 0.3 to 1 | 

Row | SMILES | IC50 [1] [µM] | IC50 [2] [µM] | IC50 ([2]; read-out: HIPK2 IC50) [µM]
18 | O=C(O)c1ccc2c(c1)cc(N1CCCCC1)c1ccncc12 [Compound 20, Sodium 5-(piperidin-1-yl)benzo[h]isoquinoline-8-carboxylate] | < 0.3 | 0.3 to 1 | 
19 | O=C(O)c1ccc2c(c1)cc(Br)c1ccncc12 [Compound 1, Sodium 5-bromobenzo[h]isoquinoline-8-carboxylate] | < 0.3 |  | < 0.3
20 | O=C(O)c1ccc2c(c1)cc([N+](=O)[O-])c1ccncc12 [Compound 26, Sodium 5-nitrobenzo[h]isoquinoline-8-carboxylate] | < 0.3 | 0.3 to 1 | 
21 | COc1nccc2c(Br)cc3cc(C(=O)O)ccc3c12 [Compound 34, Sodium 5-bromo-1-methoxybenzo[h]isoquinoline-8-carboxylate] | 0.3 to 1 | 1 to 5 | 
22 | O=C(O)c1ccc2c(c1)cc(-c1cccnc1)c1ccncc12 [Compound 7, Sodium 5-(pyridin-3-yl)benzo[h]isoquinoline-8-carboxylate] | < 0.3 | 1 to 5 | 
23 | O=C(O)c1ccc2c(ccc3ccncc32)c1 [Compound 2, Sodium benzo[h]isoquinoline-8-carboxylate] | < 0.3 | 1 to 5 | 
24 | O=C(O)c1ccc2c(c1)cc(C1CC1)c1ccncc12 [Compound 28, Sodium 5-cyclopropylbenzo[h]isoquinoline-8-carboxylate] | < 0.3 | 0.3 to 1 | 
25 | O=C(O)c1ccc2c(c1)cc(Br)c1ccnc(Cl)c12 [Compound 23, Sodium 5-bromo-1-chlorobenzo[h]isoquinoline-8-carboxylate] | < 0.3 | 0.3 to 1 | 
26 | CC(C)Nc1cc2cc(C(=O)O)ccc2c2cnccc12 [Compound 21, Sodium 5-(isopropylamino)benzo[h]isoquinoline-8-carboxylate] | < 0.3 | 0.3 to 1 | 
27 | O=C(O)c1ccc2c(c1)cc(Br)c1cc(Cl)ncc12 [Compound 24, Sodium 5-bromo-3-chlorobenzo[h]isoquinoline-8-carboxylate] | 1 to 5 |  | > 5
28 | O=C(O)c1ccc2c(c1)cc(NC1CC1)c1ccncc12 [Compound 17, Sodium 5-(cyclopropylamino)benzo[h]isoquinoline-8-carboxylate] | < 0.3 |  | < 0.3
29 | Cc1cc2cc(C(=O)O)ccc2c2cnccc12 [Compound 9, Sodium 5-methylbenzo[h]isoquinoline-8-carboxylate] | < 0.3 | 0.3 to 1 | 
30 | O=C(O)c1ccc2c(ccc3ccnc(Cl)c32)c1 [Compound 25, Sodium 1-chlorobenzo[h]isoquinoline-8-carboxylate] | < 0.3 | 1 to 5 | 
31 | O=C(O)c1ccc2c(c1)cc(-c1ccc(Cl)cc1)c1ccncc12 [Compound 6, Sodium 5-(4-chlorophenyl)benzo[h]isoquinoline-8-carboxylate] | 0.3 to 1 | 1 to 5 | 
32 | O=C(O)c1ccc2c(c1)cc(Cl)c1ccncc12 [Compound 3, Sodium 5-chlorobenzo[h]isoquinoline-8-carboxylate] | < 0.3 | 0.3 to 1 | 
33 | CC[C@@H](C)Nc1cc2cc(C(=O)O)ccc2c2cnccc12 [Compound 22, Sodium (R)-5-(sec-butylamino)benzo[h]isoquinoline-8-carboxylate] | < 0.3 |  | < 0.3
34 | O=C(O)c1ccc2c(c1)cc(Nc1ccc(Cl)cc1)c1ccncc12 [Compound 5, Sodium 5-((4-chlorophenyl)amino)benzo[h]isoquinoline-8-carboxylate] | < 0.3 | 0.3 to 1 | 

From patent US11932606B2, “Anti-cancer/anti-fibrosis compounds” (THE REGENTS OF THE UNIVERSITY OF CALIFORNIA, priority 2017, dated 2024)
